# Assay: Inhibition of [3H]NMS binding to muscarinic receptor in mouse N4TG1 neuroblastoma cells
row,Structure (SMILES),pKi
1,CC[N+](C)(CC)CC(=O)Nc1ccc(Cl)c(Cl)c1,> 3.33
2,CC(C(=O)OCCN1CCCCC1)(c1ccccc1)c1ccccc1,8.2
3,C[N+](C)(C)CCOC(=O)C(c1ccccc1)c1ccccc1,7.1
4,CCN(CC)CCOC(=O)C(C)(c1ccccc1)c1ccccc1 [APROFENE],8.2
5,CN1CCCCC1COC(=O)C(C)(c1ccccc1)c1ccccc1 (stereo not drawn),6.8
6,CCN1CCC(OC(=O)C(C)(c2ccccc2)c2ccccc2)CC1,9
7,CN1CCCC1CCOC(=O)C(C)(c1ccccc1)c1ccccc1 (stereo not drawn),8
8,CCN1CCC(COC(=O)C(C)(c2ccccc2)c2ccccc2)CC1,6.9
9,CCN1CCCC(OC(=O)C(C)(c2ccccc2)c2ccccc2)C1 (stereo not drawn),6.3
10,CN1CCC(COC(=O)C(C)(c2ccccc2)c2ccccc2)CC1,7.7
11,CN1CCC2CC1C[C@@H](OC(=O)C(C)(c1ccccc1)c1ccccc1)C2 (stereo partly drawn),8.3
12,CN1[C@@H]2CC[C@H]1C[C@@H](OC(=O)C(CO)c1ccccc1)C2 (stereo partly drawn) [ATROPINE],8.4
13,CN1CCCC(COC(=O)C(C)(c2ccccc2)c2ccccc2)C1 (stereo not drawn),7.8
14,C[n+]1cscc1C(C)(C)OC(=O)c1ccccc1,5.5
15,C[N+](C)(C)CC#CC(O)(c1cccs1)C1CCCC1 (stereo not drawn),7.1
16,CN1CCC(OC(=O)C(C)(c2ccccc2)c2ccccc2)CC1,8.8
17,CC[N+]1(CCOC(=O)C(CO)c2ccccc2)CCCCC1 (stereo not drawn),8.7
18,CN1CCC(OC(=O)C(C)(c2ccccc2)c2ccccc2)C1 (stereo not drawn),7.8
19,CN1C2CC[C@H]1C[C@@H](OC(=O)C(C)(c1ccccc1)c1ccccc1)C2,8.4
20,CC(C(=O)OCCN1CCCC1)(c1ccccc1)c1ccccc1,8.2
21,CN1CCC(OC(=O)C(CO)c2ccc(C(F)(F)F)cc2)CC1 (stereo not drawn),7.7
22,CN1CC2CC1C[C@H](OC(=O)C(C)(c1ccccc1)c1ccccc1)C2 (stereo partly drawn),8.3
23,CC(C)N(COC(=O)c1ccc(N)cc1)C(C)C,5.3

# From ChEMBL document CHEMBL1151914, “3D-QSAR studies of 2,2-diphenylpropionates to aid discovery of novel potent muscarinic antagonists” (Bioorg Med Chem, 2009)
